Experimental data: patent publication US4605669A, “Lipoxygenase inhibiting naphthohydroxamic acids” (Abbott Laboratories, priority 1985, dated 1986)
Where two headings read alike, the source gives them in different places. Each block holds one compound with its values, some of them ahead of it.

Columns and labels:
Format in all cases: biochemical
5-lipoxygenase = molecular target: T1, 5-lipoxygenase (Rattus norvegicus, UniProt P12527); experiment: 5-Lipoxygenase IC50 determination (20,000×G supernatant of homogenized RBL-1 cells, radiolabeled arachidonic acid); conditions: 20,000×G supernatant from homogenized RBL-1 cells
T1 construct: homogenized RBL-1 cells; endogenous in cells; host or cells: RBL-1 cells (20,000×G supernatant of homogenate)
T1 sequence (P12527 1-673): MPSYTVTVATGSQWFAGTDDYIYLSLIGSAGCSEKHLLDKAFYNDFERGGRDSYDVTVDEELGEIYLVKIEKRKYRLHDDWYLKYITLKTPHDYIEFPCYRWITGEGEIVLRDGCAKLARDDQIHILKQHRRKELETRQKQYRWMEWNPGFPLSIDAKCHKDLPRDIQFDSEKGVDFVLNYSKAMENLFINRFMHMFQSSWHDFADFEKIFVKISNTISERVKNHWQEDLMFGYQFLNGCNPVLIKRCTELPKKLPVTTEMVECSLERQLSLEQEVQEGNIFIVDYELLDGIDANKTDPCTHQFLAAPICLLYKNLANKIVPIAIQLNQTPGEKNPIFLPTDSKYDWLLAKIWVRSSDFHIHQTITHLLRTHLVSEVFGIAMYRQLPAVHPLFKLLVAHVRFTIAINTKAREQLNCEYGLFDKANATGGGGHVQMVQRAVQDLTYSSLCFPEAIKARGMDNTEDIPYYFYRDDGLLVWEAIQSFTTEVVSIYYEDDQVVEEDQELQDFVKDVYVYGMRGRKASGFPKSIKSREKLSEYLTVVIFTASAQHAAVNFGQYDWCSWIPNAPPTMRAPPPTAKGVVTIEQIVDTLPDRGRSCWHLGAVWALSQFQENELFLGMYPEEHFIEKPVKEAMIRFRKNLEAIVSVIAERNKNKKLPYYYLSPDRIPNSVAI
Procedure: (§1) Reactions were initiated by the addition of radiolabeled arachidonic acid and terminated by acidification and ether extraction. Reaction products were separated from nonconverted substrate by thin layer chromatography and measured by liquid scintillatiton spectroscopy. Inhibition of 5-lipoxygenase activity was calculated as the ratio of the amounts of product formed in the presence and absence of inhibitor.

15-lipoxygenase = molecular target: T2, 15-lipoxygenase (Glycine max, UniProt P08170); experiment: Inhibition of 15-lipoxygenase obtained from soybean; conditions: for inhibition at 10 µM: read-out: % Inhibition at Indicated Concentration, 15-lipoxygenase, 10 uM; for inhibition at 100 µM: read-out: % Inhibition at Indicated Concentration, 15-lipoxygenase, 100 uM
T2 construct: 15-lipoxygenase obtained from soybean; from tissue; host or cells: soybean
T2 sequence (P08170 1-839): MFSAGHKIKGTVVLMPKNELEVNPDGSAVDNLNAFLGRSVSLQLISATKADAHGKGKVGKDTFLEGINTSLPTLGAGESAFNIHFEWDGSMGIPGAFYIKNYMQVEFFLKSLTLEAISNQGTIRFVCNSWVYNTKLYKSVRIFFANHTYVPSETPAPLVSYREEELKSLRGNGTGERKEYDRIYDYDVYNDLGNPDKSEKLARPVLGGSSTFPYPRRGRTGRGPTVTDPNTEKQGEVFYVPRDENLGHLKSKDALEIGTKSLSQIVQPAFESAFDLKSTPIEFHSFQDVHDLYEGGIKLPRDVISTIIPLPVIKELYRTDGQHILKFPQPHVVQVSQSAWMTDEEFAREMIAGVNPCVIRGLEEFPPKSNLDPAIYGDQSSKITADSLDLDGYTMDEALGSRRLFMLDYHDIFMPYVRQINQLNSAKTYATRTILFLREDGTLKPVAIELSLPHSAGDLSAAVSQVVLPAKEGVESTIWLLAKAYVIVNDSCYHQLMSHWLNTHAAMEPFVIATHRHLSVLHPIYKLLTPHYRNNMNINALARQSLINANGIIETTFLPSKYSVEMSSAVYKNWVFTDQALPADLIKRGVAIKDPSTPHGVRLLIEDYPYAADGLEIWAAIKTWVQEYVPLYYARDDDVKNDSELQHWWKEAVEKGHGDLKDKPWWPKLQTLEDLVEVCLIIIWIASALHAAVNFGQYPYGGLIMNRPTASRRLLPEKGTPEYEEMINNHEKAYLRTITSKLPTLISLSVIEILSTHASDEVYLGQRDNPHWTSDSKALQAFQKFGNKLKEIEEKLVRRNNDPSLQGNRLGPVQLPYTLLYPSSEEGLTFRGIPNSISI
Procedure: as §1, with “The compounds of this invention are potent inhibitors of 5-, 12- and 15-lipoxygenase. An assay to determine 5-lipoxygenase activity was performed in incubations containing various concentrations of the test compound and the 20,000×G supernatant from 7.5×10^6 homogenized RBL-1 cells. Reactions” for “Reactions”
(§2) The inhibitory activities of the compounds of this invention against 12- and 15-lipoxygenase can be determined in the foregoing assay in which 12-lipoxygenase obtained from human platelets, or 15-lipoxygenase obtained from soybean, is substituted for the 5-lipoxygenase-containing cell supernatant fraction.

12-lipoxygenase = molecular target: T3, 12-lipoxygenase (Homo sapiens, UniProt P18054); experiment: Inhibition of 12-lipoxygenase obtained from human platelets; conditions: human platelet 12-lipoxygenase
T3 construct: 12-lipoxygenase obtained from human platelets; from tissue; host or cells: human platelets
T3 sequence (P18054 1-663): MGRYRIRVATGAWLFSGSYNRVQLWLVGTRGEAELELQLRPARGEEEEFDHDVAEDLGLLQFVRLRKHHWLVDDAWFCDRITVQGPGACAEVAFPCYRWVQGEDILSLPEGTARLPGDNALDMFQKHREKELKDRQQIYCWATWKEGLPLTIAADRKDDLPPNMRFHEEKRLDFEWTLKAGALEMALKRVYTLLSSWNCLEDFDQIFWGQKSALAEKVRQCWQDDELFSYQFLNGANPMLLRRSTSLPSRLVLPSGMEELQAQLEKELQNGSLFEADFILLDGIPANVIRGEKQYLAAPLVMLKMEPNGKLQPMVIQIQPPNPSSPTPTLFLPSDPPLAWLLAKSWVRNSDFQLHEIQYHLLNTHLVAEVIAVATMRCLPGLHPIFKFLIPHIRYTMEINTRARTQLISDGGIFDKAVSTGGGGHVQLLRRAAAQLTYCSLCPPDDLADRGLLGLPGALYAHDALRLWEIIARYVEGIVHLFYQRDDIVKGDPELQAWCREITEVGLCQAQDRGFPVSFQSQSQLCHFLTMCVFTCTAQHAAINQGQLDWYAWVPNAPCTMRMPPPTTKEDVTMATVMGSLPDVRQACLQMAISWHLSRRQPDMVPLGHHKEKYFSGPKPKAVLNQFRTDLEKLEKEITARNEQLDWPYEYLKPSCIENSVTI
Procedure: as §1, with “The compounds of this invention are potent inhibitors of 5-, 12- and 15-lipoxygenase. An assay to determine 5-lipoxygenase activity was performed in incubations containing various concentrations of the test compound and the 20,000×G supernatant from 7.5×10^6 homogenized RBL-1 cells. Reactions” for “Reactions”
as §2

[1] = 100 uM, soybean 15-lipoxygenase

IC50 (5-lipoxygenase): 2.9 µM
% Inhibition at Indicated Concentration, 15-lipoxygenase, 10 uM (15-lipoxygenase; 10 uM, soybean 15-lipoxygenase): 10%
% Inhibition at Indicated Concentration, 15-lipoxygenase, 100 uM (15-lipoxygenase; [1]): 70%
% Inhibition at Indicated Concentration, 12-lipoxygenase, 10 uM (12-lipoxygenase; 10 uM): 74%
% Inhibition at Indicated Concentration, 12-lipoxygenase, 100 uM (12-lipoxygenase; 100 uM): 77%
Compound: 6-(1-non-2-enoxy)-2-naphthohydroxamic acid [Example 8]

IC50 (5-lipoxygenase): 20 µM
Compound: CCCCCCCCCOc1ccc2cc(C(=O)NO)ccc2c1 [Example 1, 6-(1-nonoxy)-2-naphthohydroxamic acid]

Compound: COc1ccc2cc(C(=O)NO)ccc2c1 [Example 2, 6-Methoxy-2-naphthohydroxamic acid]
IC50 (5-lipoxygenase): 8 µM
inhibition at 10 µM (15-lipoxygenase): 23%
inhibition at 100 µM (15-lipoxygenase): 44%

Compound: CCCCOc1ccc2cc(C(=O)NO)ccc2c1 [Example 3, 6-(1-butoxy)-2-naphthohydroxamic acid]
IC50 (5-lipoxygenase): 2 µM
inhibition at 10 µM (15-lipoxygenase; 10 uM, soybean 15-lipoxygenase): 45%
inhibition at 100 µM (15-lipoxygenase; [1]): 51%

Compound: CCCCOc1ccc2cc(C(=O)N(C)O)ccc2c1 [Example 4, N-methyl-6-(1-butoxy)-2-naphthohydroxamic acid]
IC50 (5-lipoxygenase): 0.41 µM
inhibition at 10 µM (15-lipoxygenase; 10 uM, soybean 15-lipoxygenase): 29%
inhibition at 100 µM (15-lipoxygenase; [1]): 74%

Compound: CCCCCCCOc1ccc2cc(C(=O)NO)ccc2c1 [Example 5, 6-(1-heptoxy)-2-naphthohydroxamic acid]
IC50 (5-lipoxygenase): 7.1 µM

Compound: CCCCCCCCOc1ccc2cc(C(=O)NO)ccc2c1 [Example 6, 6-(1-octoxy)-2-naphthohydroxamic acid]
IC50 (5-lipoxygenase): 6.5 µM
inhibition at 10 µM (12-lipoxygenase; 10 uM, read-out: % Inhibition at Indicated Concentration, 12-lipoxygenase, 10 uM): 68%
inhibition at 100 µM (12-lipoxygenase; 100 uM, read-out: % Inhibition at Indicated Concentration, 12-lipoxygenase, 100 uM): 71%

IC50 (5-lipoxygenase): 4.6 µM
Compound: C=CCOc1ccc2cc(C(=O)NO)ccc2c1 [Example 7, 6-(1-prop-2-enoxy)-2-naphthohydroxamic acid]

IC50 (5-lipoxygenase): 30 µM
Compound: O=C(NO)c1ccc2cc(OCc3ccccc3)ccc2c1 [Example 9, 6-(benzyloxy)-2-naphthohydroxamic acid]
